Experiments:
[1] = target: T1, Amine oxidase [flavin-containing] A (Bos taurus, UniProt P21398); assay: Inhibition of bovine brain mitochondria MAO-A using serotonin substrate after 60 mins by fluorimetric method
T1 sequence (P21398 whole entry): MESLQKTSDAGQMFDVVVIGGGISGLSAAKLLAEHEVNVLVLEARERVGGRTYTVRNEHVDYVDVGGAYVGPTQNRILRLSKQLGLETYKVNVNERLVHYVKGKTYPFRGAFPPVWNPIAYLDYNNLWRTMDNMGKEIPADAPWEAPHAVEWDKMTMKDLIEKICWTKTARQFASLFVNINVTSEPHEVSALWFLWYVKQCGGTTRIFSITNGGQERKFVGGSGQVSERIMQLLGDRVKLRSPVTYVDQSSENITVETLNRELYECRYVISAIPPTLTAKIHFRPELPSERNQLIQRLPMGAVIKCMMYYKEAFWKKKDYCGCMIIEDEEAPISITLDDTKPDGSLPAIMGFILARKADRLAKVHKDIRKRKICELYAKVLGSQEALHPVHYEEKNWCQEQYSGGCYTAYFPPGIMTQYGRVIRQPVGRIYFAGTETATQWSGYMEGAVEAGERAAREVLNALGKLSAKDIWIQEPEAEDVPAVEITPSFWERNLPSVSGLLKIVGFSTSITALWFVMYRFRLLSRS

[2] = target: T2, Amine oxidase [flavin-containing] B (Bos taurus, UniProt P56560); assay: Inhibition of bovine brain mitochondria MAO-B using benzylamine substrate after 60 mins by fluorimetric method
T2 sequence (P56560 whole entry): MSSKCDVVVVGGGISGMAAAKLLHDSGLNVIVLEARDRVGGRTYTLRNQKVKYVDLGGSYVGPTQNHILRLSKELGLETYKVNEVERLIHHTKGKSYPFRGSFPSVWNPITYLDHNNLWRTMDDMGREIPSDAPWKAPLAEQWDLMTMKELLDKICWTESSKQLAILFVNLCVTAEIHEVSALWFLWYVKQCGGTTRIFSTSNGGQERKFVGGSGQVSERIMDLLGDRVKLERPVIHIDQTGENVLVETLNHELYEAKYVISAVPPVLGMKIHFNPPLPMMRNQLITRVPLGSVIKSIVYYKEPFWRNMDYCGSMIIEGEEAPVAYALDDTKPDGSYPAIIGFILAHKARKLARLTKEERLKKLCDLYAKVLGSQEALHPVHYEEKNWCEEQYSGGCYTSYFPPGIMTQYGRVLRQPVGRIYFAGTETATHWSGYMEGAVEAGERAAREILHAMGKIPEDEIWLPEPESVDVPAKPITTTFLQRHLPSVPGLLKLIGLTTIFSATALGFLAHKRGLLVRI

Mus musculus [3] = assay: Acute toxicity in mouse at 300 mg/kg, po after 24 hrs; assay type: organism-based; details: in vivo
Mus musculus [4] = assay: Acute toxicity in mouse at 125 mg/kg, ip after 24 hrs; assay type: organism-based; details: in vivo

Row | SMILES | IC50 [1] [µM] | IC50 [2] [µM] | Activity (Mus musculus [3]) | Activity (Mus musculus [4])
1 | COC(=O)CCCN1C(=O)c2ccccc2NC1c1ccco1 (stereo not given) | 0.096 | 780 | Non-toxic | Non-toxic
2 | COC(=O)C(Cc1ccccc1)N1C(=O)c2ccccc2NC1c1ccc(Cl)cc1 (stereo not given) | 0.042 | 540 | Non-toxic | Non-toxic
3 | COC(=O)CCCCCN1C(=O)c2ccccc2NC1c1ccc(Cl)cc1 (stereo not given) | 0.044 | 290 | Non-toxic | Non-toxic
4 | COC(=O)C(Cc1ccccc1)N1C(=O)c2ccccc2NC1c1ccco1 (stereo not given) | 0.073 | 340 | Non-toxic | Non-toxic
5 | NNC(=O)CCN1C(=O)c2ccccc2NC1c1ccc2c(c1)OCO2 (stereo not given) | 0.032 | 380 | Non-toxic | Non-toxic
6 | COC(=O)CN1C(=O)c2ccccc2NC1c1ccc(OC)cc1 (stereo not given) | 0.048 | 560 | Non-toxic | Non-toxic
7 | CC(C(=O)NN)N1C(=O)c2ccccc2NC1c1ccco1 (stereo not given) | 0.032 | 310 | Non-toxic | Non-toxic
8 | NNC(=O)CN1C(=O)c2ccccc2NC1c1ccco1 (stereo not given) | 0.036 | 560 | Non-toxic | Non-toxic
9 | NNC(=O)CCN1C(=O)c2ccccc2NC1c1ccc(Cl)cc1 (stereo not given) | 0.051 | 420 | Non-toxic | Non-toxic
10 | COC(=O)CCCN1C(=O)c2ccccc2NC1c1ccccc1 (stereo not given) | 0.063 | 540 | Non-toxic | Non-toxic
11 | COC(=O)CCCCCNC(=O)c1ccccc1/N=C/c1ccccc1 | 0.064 | 540 | Non-toxic | Non-toxic
12 | NNC(=O)C(Cc1ccccc1)N1C(=O)c2ccccc2NC1c1ccco1 (stereo not given) | 0.028 | 220 | Non-toxic | Non-toxic
13 | COC(=O)C(C)N1C(=O)c2ccccc2NC1c1ccco1 (stereo not given) | 0.0082 | 61 | Non-toxic | Non-toxic
14 | NNC(=O)C(Cc1ccccc1)N1C(=O)c2ccccc2NC1c1ccc(Cl)cc1 (stereo not given) | 0.018 | 120 | Non-toxic | Non-toxic
15 | COC(=O)CCCN1C(=O)c2ccccc2NC1c1ccc2c(c1)OCO2 (stereo not given) | 0.088 | 660 | Non-toxic | Non-toxic
16 | COC(=O)CN1C(=O)c2ccccc2NC1c1ccc(Cl)cc1 (stereo not given) | 0.0036 | 88 | Non-toxic | Non-toxic
17 | COC(=O)CCCNC(=O)c1ccccc1N | 0.071 | 460 | Non-toxic | Non-toxic
18 | NNC(=O)CCN1C(=O)c2ccccc2NC1c1ccccc1 (stereo not given) | 0.016 | 210 | Non-toxic | Non-toxic
19 | NNC(=O)CN1C(=O)c2ccccc2NC1c1ccc2c(c1)OCO2 (stereo not given) | 0.0021 | 83 | Non-toxic | Non-toxic
20 | COC(=O)CCCCCNC(=O)c1ccccc1N | 0.056 | 440 | Non-toxic | Non-toxic
